Assays:
[1] = test system: Phytophthora infestans; format: in vivo; settings: in vivo
[2] = test system: Alternaria solani; assay: Alternaria test (tomato)/protective; format: in vivo; settings: in vivo
Procedure: (§1) Solvent: 49 parts by weight of N,N-dimethylformamide
(§2) Emulsifier: 1 part by weight of alkylaryl polyglycol ether
To produce a suitable preparation of active compound, 1 part by weight of active compound is mixed with the stated amounts of solvent and emulsifier, and the concentrate is diluted with water to the desired concentration.
To test for protective activity, young tomato plants are sprayed with the active compound preparation at the stated application rate. 1 day after the treatment, the plants are inoculated with a spore suspension of Alternaria solani and then remain at 100% rel. humidity and 22° C. for 24 h. The plants then remain at 96% rel. atmospheric humidity and a temperature of 20° C.
(§3) Evaluation is carried out 7 days after the inoculation. 0% means an efficacy which corresponds to that of the control, whereas an efficacy of 100% means that no infection is observed.

[3] = test system: Sphaerotheca fuliginea; assay: Sphaerotheca test (cucumber)/protective; format: in vivo; settings: in vivo
Procedure: as §1, §2
(§4) To produce a suitable preparation of active compounds, 1 part by weight of active compound is mixed with the stated amounts of solvent and emulsifier, and the concentrate is diluted with water to the desired concentration.
To test for protective activity, young cucumber plants are sprayed with the active compound preparation at the stated application rate. 1 day after the treatment, the plants are inoculated with a spore suspension of Sphaerotheca fuliginea. The plants are then placed in a greenhouse at 70% rel. atmospheric humidity and a temperature of 23° C.
as §3

[4] = test system: Leptosphaeria nodorum; assay: Leptosphaeria nodorum test (wheat)/protective; format: in vivo; settings: in vivo
Procedure: as §1, §2, §4
(§5) To test for protective activity, young wheat plants are sprayed with the active compound preparation at the stated application rate. 1 day after the treatment, the plants are inoculated with an aqueous spore suspension of Leptosphaeria nodorum and then remain at 100% rel. atmospheric humidity and 22° C. for 48 h. The plants are then placed in a greenhouse at 90% rel. atmospheric humidity and a temperature of 22° C.
(§6) Evaluation is carried out 7-9 days after the inoculation. 0% means an efficacy which corresponds to that of the control, whereas an efficacy of 100% means that no infection is observed.

[5] = test system: Pyrenophora teres; assay: Pyrenophora teres test (barley)/protective; format: in vivo
Procedure: as §1, §2, §4
as §5, with “young barley” for “young wheat”, “of Pyrenophora teres” for “of Leptosphaeria nodorum”, “at 80%” for “at 90%”, “of 20°” for “of 22°”
as §6

[6] = test system: Fusarium graminearum; assay: microbe, parasite or virus in culture; format: cell-based
[7] = test system: DON/AcDON production; assay: microbe, parasite or virus in culture; format: cell-based, Fusarium graminearum; settings: 7 days at 28° C.
[8] = log P determination by HPLC retention times (alkan-2-one calibration)

## CC(C)C(=O)Nc1cc(-c2c(-c3ccc(F)cc3)nn3c2CCOC3(C)C)ccn1 [Example 83]
[1]
  efficacy in %: 70%
[2]
  efficacy in %: 89%
[3]
  efficacy in %: 98%
[4]
  efficacy in %: 75%
[5]; in vivo
  efficacy in %: 94%

## COCC(=O)Nc1cc(-c2c(-c3ccsc3)nn3c2CCCC3)ccn1 [Example 60]
[6]
  % inhibition of the fungal growth of Fusarium graminearum at 50 μM: 100%
[3]
  efficacy in %: 90%
[7]
  % inhibition of DON/AcDON at 50 μM: 100%
[4]
  efficacy in %: 78%
[5]; in vivo
  efficacy in %: 90%

## CC(C)C(=O)Nc1cc(-c2c(-c3ccc(F)cc3)nn3c2COCC3)ccn1 [Example 92]
[1]
  efficacy in %: 80%
[2]
  efficacy in %: 90%
[3]
  efficacy in %: 98%
[4]
  efficacy in %: 90%
[5]; in vivo
  efficacy in %: 95%

## CC1CC1C(=O)Nc1cc(-c2c(-c3ccc(F)cc3)nn3c2CCOC3(C)C)ccn1 (stereo not drawn) [Example 101]
[2]
  efficacy in %: 90%
[3]
  efficacy in %: 98%
[4]
  efficacy in %: 70%
[5]; in vivo
  efficacy in %: 95%

## Fc1cccc(-c2nn3c(c2-c2ccnc(F)c2)CCC3)c1 [Example 54]
[2]
  efficacy in %: 80%
[6]
  % inhibition of the fungal growth of Fusarium graminearum at 50 μM: 0%
[7]
  % inhibition of DON/AcDON at 50 μM: 100%

## CCC(=O)Nc1cc(-c2c(-c3ccccc3)nn3c2COCC3)ccn1 [Example 100]
[2]
  efficacy in %: 80%
[3]
  efficacy in %: 95%
[4]
  efficacy in %: 70%
[5]; in vivo
  efficacy in %: 100%

## Fc1cccc(-c2nn3c(c2-c2ccncc2)CCC3)c1 [Example 44]
[1]
  efficacy in %: 70%
[2]
  efficacy in %: 80%
[6]
  % inhibition of the fungal growth of Fusarium graminearum at 50 μM: 61%
[7]
  % inhibition of DON/AcDON at 50 μM: 100%
[5]; in vivo
  efficacy in %: 90%

## COCC(=O)Nc1cc(-c2c(-c3ccc(F)cc3)nn3c2CCOC3(C)C)ccn1 [Example 82]
[1]
  efficacy in %: 70%
[2]
  efficacy in %: 89%
[3]
  efficacy in %: 95%
[4]
  efficacy in %: 88%
[5]; in vivo
  efficacy in %: 94%

## O=C(Nc1cc(-c2c(-c3ccc(F)cc3)nn3c2COCC3)ccn1)C1CC1 [Example 93]
[1]
  efficacy in %: 90%
[2]
  efficacy in %: 95%
[3]
  efficacy in %: 98%
[4]
  efficacy in %: 80%
[5]; in vivo
  efficacy in %: 100%

## Fc1cc(-c2c(-c3ccccc3)nn3c2CCC3)ccn1 [Example 61, 3-(2-Fluoropyridin-4-yl)-2-phenyl-5,6-dihydro-4H-pyrrolo[1,2-b]pyrazole]
[6]; Fusarium graminearum, 72 h, read-out: % inhibition of the fungal growth of Fusarium graminearum at 50 μM
  inhibition at 50 µM: 0%
[7]; Fusarium graminearum, 168 h
  inhibition at 50 µM: 100%
[8]; log P(HCOOH), HCOOH, preparation examples in the text
  chromatographic logP: 2.53
[8]; log P, values marked [b] in Table 1
  chromatographic logP: 2.53
[5]; 500 ppm active compound, barley, protective, evaluation 7-9 days after inoculation
  efficacy in %: 70%

## CCC(=O)Nc1cc(-c2c(-c3cccs3)nn3c2CCCC3)ccn1 [Example 75]
[1]
  efficacy in %: 80%
[2]
  efficacy in %: 95%
[3]
  efficacy in %: 95%
[5]; in vivo
  efficacy in %: 100%

## CC(C)Nc1cc(-c2c(-c3ccc(Cl)cc3)nn3c2CCC3)ccn1 [Example 48]
[1]
  efficacy in %: 70%

## Cc1cc(-c2c(-c3ccc(F)cc3)nn3c2CCCC3)ccn1 [Example 6]
[2]
  efficacy in %: 95%
[6]
  % inhibition of the fungal growth of Fusarium graminearum at 50 μM: 70%
[7]
  % inhibition of DON/AcDON at 50 μM: 99%
[4]
  efficacy in %: 70%
[8]; values marked [a] in Table 1
  log P: 1.22^[a];
[8]; values marked [b] in Table 1
  log P: 2.67^[b]
[5]; in vivo
  efficacy in %: 70%

## Nc1cc(-c2c(-c3ccc(F)cc3)nn3c2CCC3)ccn1 [Example 69]
[1]
  efficacy in %: 70%

## FC(F)(F)c1ccc(-c2nn3c(c2-c2ccncc2)CCC3)cc1 [Example 17]
[1]
  efficacy in %: 80%

## c1cc(-c2c(-c3ccsc3)nn3c2CCC3)ccn1 [Example 46]
[1]
  efficacy in %: 70%
[2]
  efficacy in %: 70%
[6]
  % inhibition of the fungal growth of Fusarium graminearum at 50 μM: 52%
[7]
  % inhibition of DON/AcDON at 50 μM: 100%
[5]; in vivo
  efficacy in %: 70%

## CC(C)(C)OC(=O)Nc1cc(-c2c(-c3ccc(F)cc3)nn3c2CCCC3)ccn1 [Example 16]
[6]
  % inhibition of the fungal growth of Fusarium graminearum at 50 μM: 0%
[7]
  % inhibition of DON/AcDON at 50 μM: 93%

## CN(C)C=Nc1cc(-c2c(-c3ccc(F)cc3)nn3c2CCCC3)ccn1 [Example 39]
[1]
  efficacy in %: 80%
[2]
  efficacy in %: 80%
[5]; in vivo
  efficacy in %: 95%

## CC1(C)OCCc2c(-c3ccnc(NC(=O)C4CC4)c3)c(-c3ccc(F)cc3)nn21 [Example 84]
[3]
  efficacy in %: 98%
[4]
  efficacy in %: 88%
[5]; in vivo
  efficacy in %: 94%

## CCC(=O)Nc1cc(-c2c(-c3ccc(F)cc3)nn3c2CCCCC3)ccn1 [Example 96]
[1]
  efficacy in %: 70%
[2]
  efficacy in %: 90%
[3]
  efficacy in %: 95%
[4]
  efficacy in %: 90%
[5]; in vivo
  efficacy in %: 100%

## O=C(Cc1ccccc1)Nc1cc(-c2c(-c3ccc(F)cc3)nn3c2CCCCC3)ccn1 [Example 98]
[2]
  efficacy in %: 90%
[3]
  efficacy in %: 90%
[5]; in vivo
  efficacy in %: 95%

## Fc1cc(-c2c(-c3ccc(Cl)cc3)nn3c2CCC3)ccn1 [Example 13]
[6]
  % inhibition of the fungal growth of Fusarium graminearum at 50 μM: 17%
[7]
  % inhibition of DON/AcDON at 50 μM: 96%
[5]; in vivo
  efficacy in %: 80%

## CCC(=O)Nc1cc(-c2c(-c3ccc(F)cc3)nn3c2CCOC3)ccn1 [Example 95]
[2]
  efficacy in %: 80%
[3]
  efficacy in %: 95%
[4]
  efficacy in %: 90%
[5]; in vivo
  efficacy in %: 100%

## CC(C)CC(=O)Nc1cc(-c2c(-c3ccc(F)cc3)nn3c2CCOC3)ccn1 [Example 112]
[2]
  efficacy in %: 90%
[3]
  efficacy in %: 95%
[4]
  efficacy in %: 90%
[5]; in vivo
  efficacy in %: 95%

## CC(C)C(=O)Nc1cc(-c2c(-c3ccc(F)cc3)nn3c2CCCCC3)ccn1 [Example 97]
[2]
  efficacy in %: 70%
[3]
  efficacy in %: 100%
[4]
  efficacy in %: 80%
[5]; in vivo
  efficacy in %: 100%

## CC1CC1C(=O)Nc1cc(-c2c(-c3ccc(F)cc3)nn3c2CCOC3)ccn1 (stereo not drawn) [Example 108]
[2]
  efficacy in %: 80%
[3]
  efficacy in %: 95%
[4]
  efficacy in %: 70%
[5]; in vivo
  efficacy in %: 95%

## CC(C)Nc1cc(-c2c(-c3cccc(F)c3)nn3c2CCC3)ccn1 [Example 56]
[1]
  efficacy in %: 80%
[6]
  % inhibition of the fungal growth of Fusarium graminearum at 50 μM: 27%
[7]
  % inhibition of DON/AcDON at 50 μM: 92%

## CC(=O)Nc1cc(-c2c(-c3ccc(F)cc3)nn3c2CCOC3(C)C)ccn1 [Example 90]
[1]
  efficacy in %: 78%
[2]
  efficacy in %: 95%
[3]
  efficacy in %: 95%
[4]
  efficacy in %: 89%
[5]; in vivo
  efficacy in %: 95%

## CC(C)C(=O)Nc1cc(-c2c(-c3cccs3)nn3c2CCCC3)ccn1 [Example 88]
[1]
  efficacy in %: 80%
[2]
  efficacy in %: 90%
[3]
  efficacy in %: 95%
[5]; in vivo
  efficacy in %: 90%

## O=C(CC1CC1)Nc1cc(-c2c(-c3ccc(F)cc3)nn3c2COCC3)ccn1 [Example 113]
[1]
  efficacy in %: 70%
[2]
  efficacy in %: 90%
[3]
  efficacy in %: 98%
[4]
  efficacy in %: 78%
[5]; in vivo
  efficacy in %: 94%

## CC(C)CNc1cc(-c2c(-c3ccc(F)cc3)nn3c2CCC3)ccn1 [Example 71]
[1]
  efficacy in %: 80%
[5]; in vivo
  efficacy in %: 80%

## COCC(=O)Nc1cc(-c2c(-c3ccc(F)cc3)nn3c2CCOC3)ccn1 [Example 94]
[2]
  efficacy in %: 90%
[3]
  efficacy in %: 93%
[5]; in vivo
  efficacy in %: 95%

## FC(F)(F)c1cccc(-c2nn3c(c2-c2ccncc2)CCC3)c1 [Example 42]
[6]
  % inhibition of the fungal growth of Fusarium graminearum at 50 μM: 100%
[7]
  % inhibition of DON/AcDON at 50 μM: 98%

## O=C(Nc1cc(-c2c(-c3ccc(F)cc3)nn3c2CCOC3)ccn1)C1CC1 [Example 107]
[3]
  efficacy in %: 100%
[4]
  efficacy in %: 90%
[5]; in vivo
  efficacy in %: 95%

## CC1(C)OCCc2c(-c3ccnc(NC(=O)C4CCC4)c3)c(-c3ccc(F)cc3)nn21 [Example 102]
[2]
  efficacy in %: 95%
[3]
  efficacy in %: 100%
[4]
  efficacy in %: 90%
[5]; in vivo
  efficacy in %: 95%

## CC(=O)Nc1cc(-c2c(-c3ccc(F)cc3)nn3c2CCCCC3)ccn1 [Example 99]
[2]
  efficacy in %: 80%
[3]
  efficacy in %: 98%
[4]
  efficacy in %: 95%
[5]; in vivo
  efficacy in %: 95%

## Nc1cc(-c2c(-c3ccccc3)nn3c2CCCC3)ccn1 [Example 14]
[1]
  efficacy in %: 70%
[6]
  % inhibition of the fungal growth of Fusarium graminearum at 50 μM: 24%
[7]
  % inhibition of DON/AcDON at 50 μM: 93%

## O=C(Nc1cc(-c2c(-c3ccc(F)cc3)nn3c2CCOC3)ccn1)C1CCC1 [Example 109]
[2]
  efficacy in %: 90%
[3]
  efficacy in %: 93%
[5]; in vivo
  efficacy in %: 95%

— patent US8507472B2 (priority 2010, dated 2013)
